Experimental data: patent US20200071316A1, “ACTIVATORS OF THE RETINOIC ACID INDUCIBLE GENE "RIG-I" PATHWAY AND METHODS OF USE THEREOF” (Kineta Immuno-Oncology LLC, priority 2018, published 2020)

Assays:
[1] = tested on: IRF3 signaling pathway (IRF-inducible ISG54 promotor) in THP1-Lucia ISG cells; experiment: THP1-Lucia ISG reporter assay: induction of IRF3-dependent luciferase activity; type: cell-based; details: Homo sapiens, 10 μM compound, PMA-differentiated cells, 18 h after stimulation, read-out: THP1 ISG: fold increase of IRF3-dependent luciferase activity over background
Outline: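 PMA-differentiated (100 ng/ml) reporter cells, parental and IRF3−/−, stimulated with compounds at 5–20 μM (mostly 10 μM). Secreted luciferase measured 18 h later. Scored as fold increase over untreated background in bands from "−" (<2.4-fold) to "+++++" (≥40-fold).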

[2] = tested on: THP1-Lucia ISG IRF3 −/− cells; experiment: IRF3-deficient THP1-Lucia ISG IRF3 −/− reporter assay (counter-screen); type: cell-based; details: Homo sapiens, 18 h after stimulation, read-out: THP1 ISG IRF3 −/−: fold increase of luciferase activity over background; for fold induction at 10 µM: 10 μM compound
Outline: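 PMA-differentiated (100 ng/ml) reporter cells carrying ISRE/ISG54 minimal promoter-driven secreted luciferase were stimulated with compounds at 5–20 μM (mostly 10 μM). Luciferase measured 18 h later and expressed as fold increase over untreated background, binned from "−" (<2.4-fold) to "+++++" (≥40-fold).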

[3] = tested on: CXCL10 secretion by CT26 cells; experiment: RIG-I dependent CXCL10 secretion by CT26 colon carcinoma cells (ELISA); type: cell-based, murine; details: 10 μM compound, 24 h
Outline: (§1)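 Murine CT26 colon carcinoma cells, and CRISPR-generated RIG-I knockout CT26 cells, were seeded at 1×10^4 cells/well and grown 24 h at 37 °C, 5% CO2, then treated with compounds at 5 to 20 μM. CXCL10 in supernatants was measured by ELISA 24 h after stimulation.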

[4] = tested on: RIG-I deficient CT26 RIG-1−/− cells; experiment: CXCL10 secretion in RIG-I deficient CT26 RIG-1−/− cells (ELISA); type: cell-based, murine; details: 10 μM compound, 24 h
Outline: as §1

[5] = tested on: murine CT26 colon carcinoma cells; experiment: Compound-induced immunogenic cell death: apoptosis (Annexin V+) by flow cytometry; type: cell-based; details: 18 h after treatment, dose titration, FIG. 1A
Excerpt: (§2) To determine if the RIG-I agonist compounds induce immunogenic cell death in cancer cells, induction of apoptosis and the translocation or of calreticulin (CRT) to the cell surface in murine CT26 colon carcinoma cells were evaluation. The translocation of CRT occurs as part of a specific RIG-I dependent danger-signaling system, and the presence of CRT on the cell membrane promotes tumor antigen uptake by the dendritic cells and leads to the induction of am antigen-specific T cell response
(§3) The induction of apoptosis and the CRT translocation was measured by flow cytometry. […] Cells were harvested 18 h after treatment and then prepared for flow cytometry using an Annexin V staining kit (Biolegend) for quantification of apoptosis, an anti-CRT antibody (Abgent) for calreticulin translocation, and the Live/Dead-Violet staining kit (Thermofisher) for cell viability. Induction of apoptosis and translocation of calreticulin (CRT) to cell surface by live cells was determined by tri-color flow cytometry using FITC-labeled Annexin V, Live/Dead-Violet (LDV), and APC-anti-CRT. Apoptotic cells were defined as Annexin V^+ and calreticulin translocation to cell surface was quantified by mean fluorescent intensity (MFI) of calreticulin^+ live cells (CRT^+ LDV^−). […]

[6] = tested on: murine CT26 colon carcinoma cells; experiment: Compound-induced immunogenic cell death: calreticulin translocation to cell surface (MFI of CRT+ LDV− cells); type: cell-based; details: 18 h after treatment, dose titration, FIG. 1B
Excerpt: as §2, §3

O=C(Nc1c(Cl)cccc1Cl)c1ccc2nc(NC(=O)c3cc4ccccc4cc3OCCCCN3CCOCC3)sc2c1 [Example 19, N-(2,6-dichlorophenyl)-2-{3-[4-(morpholin-4-yl)butoxy]naphthalene-2-amido}-1,3-benzothiazole-6-carboxamide]
fold induction at 10 µM [1]: 5 to 9.9 | fold induction at 10 µM [2]: < 2.4 | CXCL10 secretion by CT26 cells [3]: ++++ (“++++” indicates 800 to 1599 pg/mL) | CXCL10 secretion by CT26 RIG-I −/− cells [4]: − (“−” indicates less than 100 pg/mL) | induction of immunogenic cell death: apoptosis (Annexin V+) [5]: induction of immunogenic cell death | induction of immunogenic cell death: calreticulin translocation to cell surface [6]: induction of immunogenic cell death

O=C(Nc1cc2ccc(S(=O)(=O)N3CCCC3)cc2s1)c1cc2ccsc2cc1OCCCCN1CCOCC1 [Example 72, 6-[4-(morpholin-4-yl)butoxy]-N-[6-(pyrrolidine-1-sulfonyl)-1-benzothiophen-2-yl]-1-benzothiophene-5-carboxamide]
fold induction at 10 µM [1]: 20 to 39 | fold induction at 10 µM [2]: < 2.4 | CXCL10 secretion by CT26 cells [3]: ++++ (“++++” indicates 800 to 1599 pg/mL) | CXCL10 secretion by CT26 RIG-I −/− cells [4]: − (“−” indicates less than 100 pg/mL)

O=C(Nc1cc2ccc(S(=O)(=O)N3CCCC3)cc2s1)c1cc2c(cc1OCCCCN1CCOCC1)OCO2 [Example 73, 6-[4-(morpholin-4-yl)butoxy]-N-[6-(pyrrolidine-1-sulfonyl)-1-benzothiophen-2-yl]-2H-1,3-benzodioxole-5-carboxamide]
fold induction at 10 µM [1]: 20 to 39 | fold induction at 10 µM [2]: < 2.4 | CXCL10 secretion by CT26 cells [3]: ++++ (“++++” indicates 800 to 1599 pg/mL) | CXCL10 secretion by CT26 RIG-I −/− cells [4]: − (“−” indicates less than 100 pg/mL)

O=C(Nc1cc2ccc(S(=O)(=O)N3CCCC3)cc2s1)c1cc2ccccc2cc1OCCN1CCOCC1 [Example 74, 3-[2-(morpholin-4-yl)ethoxy]-N-[6-(pyrrolidine-1-sulfonyl)-1-benzothiophen-2-yl]naphthalene-2-carboxamide]
fold induction at 10 µM [1]: 10 to 19 | fold induction at 10 µM [2]: < 2.4 | CXCL10 secretion by CT26 cells [3]: +++ (“+++” indicates 400-799 pg/mL) | CXCL10 secretion by CT26 RIG-I −/− cells [4]: − (“−” indicates less than 100 pg/mL)

O=C(Nc1cc2ccc(S(=O)(=O)N3CCCC3)cc2s1)c1cc2c(cc1OCCN1CCOCC1)OCO2 [Example 75]
fold induction at 10 µM [1]: 5 to 9.9 | fold induction at 10 µM [2]: < 2.4 | CXCL10 secretion by CT26 cells [3]: ++ (“++” indicates 200-399 pg/mL) | CXCL10 secretion by CT26 RIG-I −/− cells [4]: − (“−” indicates less than 100 pg/mL)

O=C(Nc1cc2ccc(S(=O)(=O)N3CCCC3)cc2s1)c1cc2ccsc2cc1OCCN1CCOCC1 [Example 76, 6-[2-(morpholin-4-yl)ethoxy]-N-[6-(pyrrolidine-1-sulfonyl)-1-benzothiophen-2-yl]-1-benzothiophene-5-carboxamide]
fold induction at 10 µM [1]: 20 to 39 | fold induction at 10 µM [2]: < 2.4 | CXCL10 secretion by CT26 cells [3]: ++++ (“++++” indicates 800 to 1599 pg/mL) | CXCL10 secretion by CT26 RIG-I −/− cells [4]: − (“−” indicates less than 100 pg/mL)

O=C(Nc1nc2ccc(S(=O)(=O)N3CC[C@@H](O)C3)cc2s1)c1cc2ccccc2cc1OCCN1CCOCC1 [Example 77, N-(6-{[(3R)-3-hydroxypyrrolidin-1-yl]sulfonyl}-1,3-benzothiazol-2-yl)-3-[2-(morpholin-4-yl)ethoxy]naphthalene-2-carboxamide]
fold induction at 10 µM [1]: 2.4 to 4.9 | fold induction at 10 µM [2]: < 2.4 | CXCL10 secretion by CT26 cells [3]: + (“+” indicates 100-199 pg/mL) | CXCL10 secretion by CT26 RIG-I −/− cells [4]: − (“−” indicates less than 100 pg/mL)

O=C(Nc1nc2ccc(S(=O)(=O)N3CC[C@@H](O)C3)cc2s1)c1cc2ccccc2cc1OCCCCN1CCOCC1 [Example 78, N-(6-{[(3R)-3-hydroxypyrrolidin-1-yl]sulfonyl}-1,3-benzothiazol-2-yl)-3-[4-(morpholin-4-yl)butoxy]naphthalene-2-carboxamide]
fold induction at 10 µM [1]: ≥ 40 | fold induction at 5 µM ([2]; 5 μM compound (**)): < 2.4 | CXCL10 secretion by CT26 cells [3]: +++++ (“+++++” indicates greater than or equal to 1600 pg/ml) | CXCL10 secretion by CT26 RIG-I −/− cells [4]: − (“−” indicates less than 100 pg/mL)

O=C(Nc1nc2ccc(S(=O)(=O)N3CCCC3)cc2s1)c1cc2ccccc2cc1OCCCCN1CCC(F)(F)CC1 [Example 80, 3-[4-(4,4-difluoropiperidin-1-yl)butoxy]-N-[6-(pyrrolidine-1-sulfonyl)-1,3-benzothiazol-2-yl]naphthalene-2-carboxamide]
fold induction at 10 µM [1]: 20 to 39 | fold induction at 10 µM [2]: < 2.4 | CXCL10 secretion by CT26 cells [3]: ++++ (“++++” indicates 800 to 1599 pg/mL) | CXCL10 secretion by CT26 RIG-I −/− cells [4]: − (“−” indicates less than 100 pg/mL)

O=C(Nc1cc2ccc(S(=O)(=O)N3CCCC3)cc2s1)c1ccc(-c2ccccc2)cc1 [Example 81, N-[6-(pyrrolidine-1-sulfonyl)-1-benzothiophen-2-yl]-[1,1′-biphenyl]-4-carboxamide]
fold induction at 10 µM [1]: 20 to 39 | fold induction at 10 µM [2]: < 2.4 | CXCL10 secretion by CT26 cells [3]: ++++ (“++++” indicates 800 to 1599 pg/mL) | CXCL10 secretion by CT26 RIG-I −/− cells [4]: − (“−” indicates less than 100 pg/mL)

O=C(Nc1nc2ccc(S(=O)(=O)N3CCCC3)cc2s1)c1sc2ccccc2c1OCCN1CCOCC1 [Example 84, 3-[2-(morpholin-4-yl)ethoxy]-N-[6-(pyrrolidine-1-sulfonyl)-1,3-benzothiazol-2-yl]-1-benzothiophene-2-carboxamide]
fold induction at 10 µM [1]: 5 to 9.9 | fold induction at 10 µM [2]: < 2.4 | CXCL10 secretion by CT26 cells [3]: ++ (“++” indicates 200-399 pg/mL) | CXCL10 secretion by CT26 RIG-I −/− cells [4]: − (“−” indicates less than 100 pg/mL)
